Each structure is given as a SMILES string.

Data set [1] concerns Nucleic Acid. Description: Inhibitory activity against RNA target using functional assay.
Data set [2] in a line: Dissociation constant was determined. In kind it is physicochemical.

`NCC[C@@H](NC(=O)c1ccc(-c2cccc(NC(=O)c3ccc4nc(O)c(O)nc4c3)c2)o1)C(=O)N1CCNCC1` registered an IC50 in data set [1] of 14 µM. Also, the Kd in data set [2] was determined as 6.5 µM.

By IC50 is commonly meant the concentration that inhibits the measured activity by half. Low readings indicate greater potency, high ones weaker potency. The Kd is the equilibrium constant for the complex coming apart.

(Values after ChEMBL document CHEMBL1135755, “SAR by MS: a ligand based technique for drug lead discovery against structured RNA targets” (J Med Chem, 2002).)
